Legend:
Assay in all cases: relative viability (nuclei count vs DMSO), 5 days (fraction); higher = more cells survive
NCI-H838 = test system: NCI-H838
Summary of the method: (§1)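 Lung cancer cell lines, seeded in 1536-well plates, were treated the following day by pin tool with a single drug or with five library-drug doses (not always all listed) in √10 steps on top of a fixed anchor-drug dose. Cells were fixed and nuclei stained in one step after 5 days, and nuclei were counted. Relative viability is the nuclei count for treated wells divided by that for vehicle wells, reported as medians of duplicate plates.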

NCI-H650 = test system: NCI-H650
Summary of the method: as §1

NCI-H2087 = test system: NCI-H2087
Summary of the method: as §1

NCI-H596 = test system: NCI-H596
Summary of the method: as §1

LXF-289 = test system: LXF-289
Summary of the method: as §1

HCC-78 = test system: HCC-78
Summary of the method: as §1

BEN = test system: BEN
Summary of the method: as §1

NCI-H2342 = test system: NCI-H2342
Summary of the method: as §1

NCI-H322M = test system: NCI-H322M
Summary of the method: as §1

LC-2-ad = test system: LC-2-ad
Summary of the method: as §1

H3255 = test system: H3255
Summary of the method: as §1

NCI-H1666 = test system: NCI-H1666
Summary of the method: as §1

SK-MES-1 = test system: SK-MES-1
Summary of the method: as §1

UMC-11 = test system: UMC-11
Summary of the method: as §1

LU99A = test system: LU99A
Summary of the method: as §1

ChaGo-K-1 = test system: ChaGo-K-1
Summary of the method: as §1

HCC-15 = test system: HCC-15
Summary of the method: as §1

NCI-H358 = test system: NCI-H358
Summary of the method: as §1

LK-2 = test system: LK-2
Summary of the method: as §1

NCI-H661 = test system: NCI-H661
Summary of the method: as §1

PC-3 [JPC-3] = test system: PC-3 [JPC-3]
Summary of the method: as §1

NCI-H1944 = test system: NCI-H1944
Summary of the method: as §1

LCLC-97TM1 = test system: LCLC-97TM1
Summary of the method: as §1

NCI-H1651 = test system: NCI-H1651
Summary of the method: as §1

## Clc1ccc(Nc2nnc(Cc3ccncc3)c3ccccc23)cc1 [Vatalanib] + O=C(c1cc(Cc2n[nH]c(=O)c3ccccc23)ccc1F)N1CCN(C(=O)C2CC2)CC1 [Olaparib] (partner 8 µM)
NCI-H838; first compound 0.04 µM
  relative viability: 0.774
NCI-H838; first compound 0.1265 µM
  relative viability: 0.741
NCI-H838; first compound 0.4 µM
  relative viability: 0.824
NCI-H838; first compound 1.265 µM
  relative viability: 0.722
NCI-H838; first compound 4 µM
  relative viability: 0.702
NCI-H650; first compound 0.04 µM
  relative viability: 0.377
NCI-H650; first compound 0.1265 µM
  relative viability: 0.378
NCI-H650; first compound 0.4 µM
  relative viability: 0.414
NCI-H650; first compound 1.265 µM
  relative viability: 0.394
NCI-H650; first compound 4 µM
  relative viability: 0.361
NCI-H2087; first compound 0.04 µM
  relative viability: 0.461
NCI-H2087; first compound 0.1265 µM
  relative viability: 0.542
NCI-H2087; first compound 0.4 µM
  relative viability: 0.682
NCI-H2087; first compound 1.265 µM
  relative viability: 0.519
NCI-H2087; first compound 4 µM
  relative viability: 0.633
NCI-H596; first compound 0.04 µM
  relative viability: 0.751
NCI-H596; first compound 0.1265 µM
  relative viability: 0.741
NCI-H596; first compound 0.4 µM
  relative viability: 0.63
NCI-H596; first compound 1.265 µM
  relative viability: 0.652
NCI-H596; first compound 4 µM
  relative viability: 0.765
LXF-289; first compound 0.04 µM
  relative viability: 1.04
LXF-289; first compound 0.1265 µM
  relative viability: 1
LXF-289; first compound 0.4 µM
  relative viability: 1.13
LXF-289; first compound 1.265 µM
  relative viability: 0.975
LXF-289; first compound 4 µM
  relative viability: 1.03
HCC-78; first compound 0.04 µM
  relative viability: 0.899
HCC-78; first compound 0.1265 µM
  relative viability: 0.865
HCC-78; first compound 0.4 µM
  relative viability: 0.761
HCC-78; first compound 1.265 µM
  relative viability: 0.823
HCC-78; first compound 4 µM
  relative viability: 0.775
BEN; first compound 0.04 µM
  relative viability: 1.03
BEN; first compound 0.1265 µM
  relative viability: 1.01
BEN; first compound 0.4 µM
  relative viability: 1.31
BEN; first compound 1.265 µM
  relative viability: 1.04
BEN; first compound 4 µM
  relative viability: 0.877
NCI-H2342; first compound 0.04 µM
  relative viability: 0.397
NCI-H2342; first compound 0.1265 µM
  relative viability: 0.452
NCI-H2342; first compound 0.4 µM
  relative viability: 0.461
NCI-H2342; first compound 1.265 µM
  relative viability: 0.365
NCI-H2342; first compound 4 µM
  relative viability: 0.471
NCI-H322M; first compound 0.04 µM
  relative viability: 0.452
NCI-H322M; first compound 0.1265 µM
  relative viability: 0.662
NCI-H322M; first compound 0.4 µM
  relative viability: 0.781
NCI-H322M; first compound 4 µM
  relative viability: 0.778
LC-2-ad; first compound 0.04 µM
  relative viability: 0.661
LC-2-ad; first compound 0.1265 µM
  relative viability: 0.67
LC-2-ad; first compound 0.4 µM
  relative viability: 0.686
LC-2-ad; first compound 1.265 µM
  relative viability: 0.694
LC-2-ad; first compound 4 µM
  relative viability: 0.69
H3255; first compound 0.04 µM
  relative viability: 0.555
H3255; first compound 0.1265 µM
  relative viability: 0.579
H3255; first compound 0.4 µM
  relative viability: 0.596
H3255; first compound 1.265 µM
  relative viability: 0.576
H3255; first compound 4 µM
  relative viability: 0.543
NCI-H1666; first compound 0.04 µM
  relative viability: 0.72
NCI-H1666; first compound 0.1265 µM
  relative viability: 0.832
NCI-H1666; first compound 0.4 µM
  relative viability: 0.804
NCI-H1666; first compound 1.265 µM
  relative viability: 0.798
NCI-H1666; first compound 4 µM
  relative viability: 0.752
SK-MES-1; first compound 0.04 µM
  relative viability: 0.608
SK-MES-1; first compound 0.1265 µM
  relative viability: 0.71
SK-MES-1; first compound 0.4 µM
  relative viability: 0.821
SK-MES-1; first compound 1.265 µM
  relative viability: 0.61
SK-MES-1; first compound 4 µM
  relative viability: 0.627
UMC-11; first compound 0.04 µM
  relative viability: 0.331
UMC-11; first compound 0.1265 µM
  relative viability: 0.39
UMC-11; first compound 0.4 µM
  relative viability: 0.318
UMC-11; first compound 1.265 µM
  relative viability: 0.468
UMC-11; first compound 4 µM
  relative viability: 0.297
LU99A; first compound 0.04 µM
  relative viability: 0.252
LU99A; first compound 0.1265 µM
  relative viability: 0.281
LU99A; first compound 0.4 µM
  relative viability: 0.237
LU99A; first compound 1.265 µM
  relative viability: 0.23
LU99A; first compound 4 µM
  relative viability: 0.309
ChaGo-K-1; first compound 0.04 µM
  relative viability: 0.412
ChaGo-K-1; first compound 0.1265 µM
  relative viability: 0.457
ChaGo-K-1; first compound 0.4 µM
  relative viability: 0.466
ChaGo-K-1; first compound 1.265 µM
  relative viability: 0.42
ChaGo-K-1; first compound 4 µM
  relative viability: 0.433
HCC-15; first compound 0.04 µM
  relative viability: 0.795
HCC-15; first compound 0.1265 µM
  relative viability: 0.723
HCC-15; first compound 0.4 µM
  relative viability: 0.781
HCC-15; first compound 1.265 µM
  relative viability: 0.684
HCC-15; first compound 4 µM
  relative viability: 0.696
NCI-H358; first compound 0.04 µM
  relative viability: 0.566
NCI-H358; first compound 0.1265 µM
  relative viability: 0.548
NCI-H358; first compound 0.4 µM
  relative viability: 0.639
NCI-H358; first compound 1.265 µM
  relative viability: 0.769
NCI-H358; first compound 4 µM
  relative viability: 0.562
LK-2; first compound 0.04 µM
  relative viability: 0.723
LK-2; first compound 0.1265 µM
  relative viability: 0.72
LK-2; first compound 0.4 µM
  relative viability: 0.792
LK-2; first compound 1.265 µM
  relative viability: 0.702
LK-2; first compound 4 µM
  relative viability: 0.816
NCI-H661; first compound 0.04 µM
  relative viability: 0.769
NCI-H661; first compound 0.1265 µM
  relative viability: 0.757
NCI-H661; first compound 0.4 µM
  relative viability: 0.788
NCI-H661; first compound 1.265 µM
  relative viability: 0.73
NCI-H661; first compound 4 µM
  relative viability: 0.706
PC-3 [JPC-3]; first compound 0.04 µM
  relative viability: 1.15
PC-3 [JPC-3]; first compound 0.1265 µM
  relative viability: 1.02
PC-3 [JPC-3]; first compound 0.4 µM
  relative viability: 0.786
PC-3 [JPC-3]; first compound 1.265 µM
  relative viability: 1.04
PC-3 [JPC-3]; first compound 4 µM
  relative viability: 1.1
NCI-H1944; first compound 0.04 µM
  relative viability: 0.408
NCI-H1944; first compound 0.1265 µM
  relative viability: 0.403
NCI-H1944; first compound 0.4 µM
  relative viability: 0.417
NCI-H1944; first compound 1.265 µM
  relative viability: 0.392
NCI-H1944; first compound 4 µM
  relative viability: 0.384
LCLC-97TM1; first compound 0.04 µM
  relative viability: 0.357
LCLC-97TM1; first compound 0.1265 µM
  relative viability: 0.375
LCLC-97TM1; first compound 0.4 µM
  relative viability: 0.338
LCLC-97TM1; first compound 1.265 µM
  relative viability: 0.39
LCLC-97TM1; first compound 4 µM
  relative viability: 0.345
NCI-H1651; first compound 0.04 µM
  relative viability: 0.19
NCI-H1651; first compound 0.1265 µM
  relative viability: 0.184
NCI-H1651; first compound 0.4 µM
  relative viability: 0.195
NCI-H1651; first compound 1.265 µM
  relative viability: 0.202
NCI-H1651; first compound 4 µM
  relative viability: 0.179

Reference: the supplement of paper PMC10307832
